Test results from paper PMC10064330, “Reversible Dual-Covalent Molecular Locking of the 14-3-3/ERRγ Protein–Protein Interaction as a Molecular Glue Drug Discovery Approach” (Journal of the American Chemical Society, 2023).

Key:
14-3-3γ/PIN1 complex = target: T1, 14-3-3γ/PIN1 complex (Homo sapiens, UniProt P61981); test: FA selectivity screen, PIN1 client peptide; format: binding; settings: 100 μM compound, PIN1 peptide (+1 Trp)
T1 construct: made in house; host or cells: E. coli NiCo21 (DE3)
T1 sequence (P61981 1-247): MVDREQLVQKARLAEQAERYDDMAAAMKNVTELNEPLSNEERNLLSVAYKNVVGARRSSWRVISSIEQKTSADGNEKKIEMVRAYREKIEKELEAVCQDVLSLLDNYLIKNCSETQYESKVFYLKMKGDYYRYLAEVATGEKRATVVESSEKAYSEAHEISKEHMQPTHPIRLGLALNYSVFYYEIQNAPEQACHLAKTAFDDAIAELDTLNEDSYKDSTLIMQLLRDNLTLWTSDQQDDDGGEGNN
Protocol: (§1) Drugging the hub protein 14-3-3 raises the challenge of selectivity, given that 14-3-3 binds several hundred phosphoprotein partners (Figure 4a).[54] We hypothesized that the interplay of chemical reactivity, the topology, and functionality of the composite binding pocket shaped by 14-3-3 and the interaction partner drives selective stabilization of the 14-3-3/ERRγ complex.[53] To validate selectivity, molecular locks 5 and 10 were tested against a panel of nine 14-3-3 client peptides in an FA assay, and the SF100 was determined for each 14-3-3 PPI (Figure 4b and Figures S18–S20). This client panel contained a diverse representation of 14-3-3 binding proteins, differing for example in size and hydrophobicity of the +1 amino acid. Importantly, clients PKR and RND3, each containing a +1 Cys, were included in the panel.
(§2) Figure S20. KD and SF100 plot – selectivity screen. […]
(§3) nine different client peptides in presence of DMSO (negative control) or 100 µM of compound 1, 5 or 10 (based on binding curves in Figure S19). […]
(§4) A pPROEX HTb expression vector encoding the human 14-3-3 protein gamma (14-3-3γ) with a N-terminal his6-tag was transformed by heat shock into NiCo21 (DE3) competent cells. […] Finally, the protein was concentrated to ∼60 mg/mL, analyzed Q-Tof LC/MS, and aliquots were flash-frozen for storage at −80 °C. […]

14-3-3γ/SOS1 complex = target: T2, 14-3-3γ/SOS1 complex (Homo sapiens, UniProt P61981); test: FA selectivity screen, SOS1 client peptide; format: binding; settings: 100 μM compound, SOS1 peptide (+1 Ala)
T2 construct: made in house; host or cells: E. coli NiCo21 (DE3)
T2 sequence (P61981 1-247): T1 sequence (P61981 1-247)
Protocol: as §1, §2, §3, §4

CN(C)CCSSCCN(C)C(=O)c1ccc(C=O)c(F)c1 [compound 5]
off-target effect in client screen (14-3-3γ/PIN1 complex): minor off-target effects
off-target effect in client screen (14-3-3γ/SOS1 complex): minor off-target effects
